A word on the EC50: it is the concentration at which the effect is half-maximal. High values mean weaker potency, low ones greater potency.

Experiment [1] concerns the target T1, human M2 receptor (Homo sapiens, UniProt P08172).
T1 sequence (P08172 1-466): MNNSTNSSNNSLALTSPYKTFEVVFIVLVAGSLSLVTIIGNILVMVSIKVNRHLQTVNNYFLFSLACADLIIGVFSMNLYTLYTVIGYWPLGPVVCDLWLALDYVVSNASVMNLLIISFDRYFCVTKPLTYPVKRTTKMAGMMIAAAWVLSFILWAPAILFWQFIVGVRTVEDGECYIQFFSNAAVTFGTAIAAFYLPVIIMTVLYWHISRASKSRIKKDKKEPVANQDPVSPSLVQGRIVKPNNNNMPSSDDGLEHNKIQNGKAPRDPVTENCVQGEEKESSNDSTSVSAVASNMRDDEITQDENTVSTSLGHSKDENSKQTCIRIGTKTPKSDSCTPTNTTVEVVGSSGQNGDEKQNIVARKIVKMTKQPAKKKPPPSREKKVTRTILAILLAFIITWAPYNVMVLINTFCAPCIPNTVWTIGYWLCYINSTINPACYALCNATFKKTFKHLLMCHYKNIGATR
The settings on record: for EC50: Receptor activity EC50, M2-GIRK1/4 activation test, acetylcholine at EC20, allosteric potency, in some cases mean values from two or more determinations.

Experiment [2] addresses T1, human M2 receptor. In kind it is cell-based. The note with it: shift in the acetylcholine dose-response curve (Allosteric EC50 shift, GraphPad PRISM); α >1 = positive cooperativity.

With `CN(C)c1ccc2c(=O)c(C(=O)NCc3ccccc3C(F)(F)F)cn(-c3ccc(F)cc3F)c2n1` [Example 59, 1-(2,4-Difluorophenyl)-7-(dimethylamino)-4-oxo-N-[2-(trifluoromethyl)benzyl]-1,4-dihydro-1,8-naphthyridine-3-carboxamide], the midpoint of the response on human M2 receptor [1], the EC50, lay at 94 nM. Moreover, the “Cooperativity (alpha factor)” value on human M2 receptor [2] came out at 11.

The compound `CN(C)c1ccc2c(=O)c(C(=O)NCc3c(F)cccc3C(F)(F)F)cn(-c3ccc(F)cc3F)c2n1` [Example 60, 1-(2,4-Difluorophenyl)-7-(dimethylamino)-N-[2-fluoro-6-(trifluoromethyl)benzyl]-4-oxo-1,4-dihydro-1,8-naphthyridine-3-carboxamide] returned an EC50 on human M2 receptor [1] of 155 nM. Also, the “Cooperativity (alpha factor)” value on human M2 receptor [2] amounted to 8.

`CC[C@H](NC(=O)c1cn(-c2ccc(F)cc2F)c2nc(N3CC[C@H](F)C3)ccc2c1=O)C(F)(F)F` [Example 64, 1-(2,4-Difluorophenyl)-7-[(3S)-3-fluoropyrrolidin-1-yl]-4-oxo-N-[(2S)-1,1,1-trifluorobutan-2-yl]-1,4-dihydro-1,8-naphthyridine-3-carboxamide] yielded an EC50 at human M2 receptor [1] of 12 nM. Also, the “Cooperativity (alpha factor)” value at human M2 receptor [2] amounted to 28.

In the case of `CC(C)CC(NC(=O)c1cn(-c2ccc(F)cc2F)c2nc(N3CC[C@H](F)C3)ccc2c1=O)C(F)(F)F` (stereo partly drawn) [Example 65, 1-(2,4-Difluorophenyl)-7-[(3S)-3-fluoropyrrolidin-1-yl]-4-oxo-N-[1,1,1-trifluoro-4-methylpentan-2-yl]-1,4-dihydro-1,8-naphthyridine-3-carboxamide], the EC50 at human M2 receptor [1] was 7 nM. The “Cooperativity (alpha factor)” value at human M2 receptor [2] worked out at 36.

`O=C(NC(C(F)(F)F)C(F)(F)F)c1cn(-c2ccc(F)cc2F)c2nc(N3CC[C@H](F)C3)ccc2c1=O` [Example 70, 1-(2,4-Difluorophenyl)-7-[(3S)-3-fluoropyrrolidin-1-yl]-N-(1,1,1,3,3,3-hexafluoropropan-2-yl)-4-oxo-1,4-dihydro-1,8-naphthyridine-3-carboxamide] had a 50% effective concentration (EC50) at human M2 receptor [1] of 76 nM. For the same compound, the “Cooperativity (alpha factor)” value at human M2 receptor [2] stood at 29.

Consider `CCC(NC(=O)c1cn(-c2ccc(F)cc2F)c2nc(N3CC[C@H](F)C3)ccc2c1=O)C(F)(F)F` (stereo partly drawn) [Example 71, 1-(2,4-Difluorophenyl)-7-[(3S)-3-fluoropyrrolidin-1-yl]-4-oxo-N-[1,1,1-trifluorobutan-2-yl]-1,4-dihydro-1,8-naphthyridine-3-carboxamide], for which, at human M2 receptor [1], the EC50 came out at 39 nM. For the same compound, at human M2 receptor [2], the “Cooperativity (alpha factor)” value came to 30.

Compound `CC[C@H](NC(=O)c1cn(-c2ccc(F)cc2F)c2nc(NCCF)ccc2c1=O)C(F)(F)F` [Example 87, 1-(2,4-Difluorophenyl)-7-[(2-fluoroethyl)amino]-4-oxo-N-[(2S)-1,1,1-trifluorobutan-2-yl]-1,4-dihydro-1,8-naphthyridine-3-carboxamide] had an EC50 at human M2 receptor [1] of 129 nM. Moreover, on human M2 receptor [2], the “Cooperativity (alpha factor)” value is on record as 26.

For `O=C(NC(C(F)(F)F)C(F)(F)F)c1cn(-c2ccc(F)cc2F)c2nc(NCCF)ccc2c1=O` [Example 89, 1-(2,4-Difluorophenyl)-7-[(2-fluoroethyl)amino]-N-(1,1,1,3,3,3-hexafluoropropan-2-yl)-4-oxo-1,4-dihydro-1,8-naphthyridine-3-carboxamide], the EC50 on human M2 receptor [1] turned out to be 413 nM. Also, the “Cooperativity (alpha factor)” value on human M2 receptor [2] amounted to 20.

`O=C(NC12CC3CC(CC(C3)C1)C2)c1cn(-c2ccc(F)cc2F)c2nc(NCC(F)(F)F)ccc2c1=O` [Example 90, 1-(2,4-Difluorophenyl)-4-oxo-N-(tricyclo[3.3.1.1^3,7]dec-1-yl)-7-[(2,2,2-trifluoroethyl)amino]-1,4-dihydro-1,8-naphthyridine-3-carboxamide]: the EC50 on human M2 receptor [1] came out at 298 nM. Further, the “Cooperativity (alpha factor)” value at human M2 receptor [2] came out at 11.

On human M2 receptor [1], `CC(NC(=O)c1cn(-c2ccc(F)cc2F)c2nc(NCC(F)(F)F)ccc2c1=O)C(F)(F)F` (centres unmarked) [Example 93, 1-(2,4-Difluorophenyl)-4-oxo-7-[(2,2,2-trifluoroethyl)amino]-N-[1,1,1-trifluoropropan-2-yl]-1,4-dihydro-1,8-naphthyridine-3-carboxamide] registered an EC50 of 213 nM. Further, the “Cooperativity (alpha factor)” value on human M2 receptor [2] came out at 8.

The compound `O=C(NC12CCC(F)(CC1)CC2)c1cn(-c2ccc(F)cc2F)c2nc(NCC(F)(F)F)ccc2c1=O` [Example 97, 1-(2,4-Difluorophenyl)-N-(4-fluorobicyclo[2.2.2]oct-1-yl)-4-oxo-7-[(2,2,2-trifluoroethyl)amino]-1,4-dihydro-1,8-naphthyridine-3-carboxamide] yielded an EC50 on human M2 receptor [1] of 209 nM. In addition, the “Cooperativity (alpha factor)” value on human M2 receptor [2] turned out to be 9.

At human M2 receptor [1], `CC12CCC(NC(=O)c3cn(-c4ccc(F)cc4F)c4nc(NCC(F)(F)F)ccc4c3=O)(CC1)CC2` [Example 98, 1-(2,4-Difluorophenyl)-N-(4-methylbicyclo[2.2.2]oct-1-yl)-4-oxo-7-[(2,2,2-trifluoroethyl)amino]-1,4-dihydro-1,8-naphthyridine-3-carboxamide] returned an EC50 of 61 nM. In addition, the “Cooperativity (alpha factor)” value at human M2 receptor [2] was 14.

As for `CN(CCF)c1ccc2c(=O)c(C(=O)NC(C(F)(F)F)C(F)(F)F)cn(-c3ccc(F)cc3F)c2n1` [Example 111, 1-(2,4-Difluorophenyl)-7-[(2-fluoroethyl)(methyl)amino]-N-(1,1,1,3,3,3-hexafluoropropan-2-yl)-4-oxo-1,4-dihydro-1,8-naphthyridine-3-carboxamide], at human M2 receptor [1], the EC50 came to 35 nM. Besides, the “Cooperativity (alpha factor)” value at human M2 receptor [2] was 26.

The compound `CC[C@@H](NC(=O)c1cn(-c2ccc(F)cc2F)c2nc(NCC(F)F)ccc2c1=O)C(F)(F)F` [Example 123, 7-[(2,2-Difluoroethyl)amino]-1-(2,4-difluorophenyl)-4-oxo-N-[(2R)-1,1,1-trifluorobutan-2-yl]-1,4-dihydro-1,8-naphthyridine-3-carboxamide] yielded an EC50 at human M2 receptor [1] of 115 nM. For the same compound, the “Cooperativity (alpha factor)” value at human M2 receptor [2] came out at 14.

On to `O=C(NC12CC3CC(CC(C3)C1)C2)c1cn(-c2ccc(F)cc2F)c2nc(N3CCOC3=O)ccc2c1=O` [Example 128, 1-(2,4-Difluorophenyl)-4-oxo-7-(2-oxo-1,3-oxazolidin-3-yl)-N-(tricyclo[3.3.1.1^3,7]dec-1-yl)-1,4-dihydro-1,8-naphthyridine-3-carboxamide], for which it took 57 nM to reach a half-maximal effect on human M2 receptor [1] (EC50). The “Cooperativity (alpha factor)” value on human M2 receptor [2] was 18.

As to `O=C(Nc1c(Cl)cccc1Cl)c1cn(-c2ccc(F)cc2F)c2nc(NCC(F)(F)F)ccc2c1=O` [Example 163, N-(2,6-Dichlorophenyl)-1-(2,4-difluorophenyl)-4-oxo-7-[(2,2,2-trifluoroethyl)amino]-1,4-dihydro-1,8-naphthyridine-3-carboxamide], on human M2 receptor [1], the EC50 came to 173 nM. For the same compound, the “Cooperativity (alpha factor)” value on human M2 receptor [2] was found to be 13.

`COC(=O)N1CCN(c2ccc3c(=O)c(C(=O)Nc4c(Cl)cccc4Cl)cn(-c4ccc(F)cc4F)c3n2)CC1` [Example 164, Methyl 4-{6-[(2,6-dichlorophenyl)carbamoyl]-8-(2,4-difluorophenyl)-5-oxo-5,8-dihydro-1,8-naphthyridin-2-yl}piperazine-1-carboxylate] returned an EC50 at human M2 receptor [1] of 31 nM. Besides, on human M2 receptor [2], the “Cooperativity (alpha factor)” value worked out at 21.

Regarding `O=C(NC12CC3CC(CC(C3)C1)C2)c1cn(-c2ccc(F)cc2F)c2nc(N3CCC3=O)ccc2c1=O` [Example 168], on human M2 receptor [1], the EC50 was 60 nM. The “Cooperativity (alpha factor)” value on human M2 receptor [2] is on record as 13.

As to `CCC(NC(=O)c1cn(-c2ccc(F)cc2F)c2nc(N3C[C@@H](O)CC3=O)ccc2c1=O)C(F)(F)F` (some centres unmarked) [Example 176], the EC50 at human M2 receptor [1] turned out to be 95 nM. Moreover, on human M2 receptor [1] (read-out: Efficiency), the Emax turned out to be 94.1%. For the same compound, on human M2 receptor [2], the “Cooperativity (alpha factor)” value amounted to 28.

In turn, `CCC(NC(=O)c1cn(-c2ccc(F)cc2F)c2nc(N3CCCC3=O)ccc2c1=O)C(F)(F)F` (centres unmarked) [Example 177] came in with an EC50 on human M2 receptor [1] of 138 nM. Further, the “Cooperativity (alpha factor)” value at human M2 receptor [2] was found to be 5.

`CC12CCC(NC(=O)c3cn(-c4ccc(F)cc4F)c4nc(N5CC(O)CC5=O)ccc4c3=O)(CC1)CC2` (centres unmarked) [Example 181] showed an EC50 at human M2 receptor [1] of 59 nM. In addition, the “Cooperativity (alpha factor)” value on human M2 receptor [2] turned out to be 36.

On human M2 receptor [1], `O=C(NC12CC3CC(CC(C3)C1)C2)c1cn(-c2ccc(F)cc2F)c2nc(N3CC(F)CC3=O)ccc2c1=O` (centres unmarked) [Example 187, 1-(2,4-Difluorophenyl)-7-[4-fluoro-2-oxopyrrolidin-1-yl]-4-oxo-N-(tricyclo[3.3.1.1^3,7]dec-1-yl)-1,4-dihydro-1,8-naphthyridine-3-carboxamide] registered an EC50 of 98 nM. At human M2 receptor [2], the “Cooperativity (alpha factor)” value is recorded as 10.

Take `CC(C)(NC(=O)c1cn(-c2ccc(F)cc2F)c2nc(N3CC[C@@H](OC(F)F)C3)ccc2c1=O)c1c(F)cccc1F` [Example 188, 7-[(3R)-3-(Difluoromethoxy)pyrrolidin-1-yl]-1-(2,4-difluorophenyl)-N-[2-(2,6-difluorophenyl)propan-2-yl]-4-oxo-1,4-dihydro-1,8-naphthyridine-3-carboxamide]: at human M2 receptor [1], the EC50 amounted to 113 nM. In addition, the “Cooperativity (alpha factor)” value at human M2 receptor [2] was determined as 9.

Source of the values: patent publication US20190367516A1 (Bayer Pharma Aktiengesellschaft, priority 2015, published 2019).
